Assay [1] relates to isolierten, elektrisch gereizten, linken Vorhöfen des Meerschweinchens. As to the kind of experiment: positive inotropic effect on isolated, electrically stimulated left atria (method after J.V. Levy). To be noted: for IC25 / IC50: negative inotropic effect, same set-up; for IC25: read-out: Konzentration für Reduktion der Kontraktionskraft um 25 %; for IC50: read-out: Konzentration für Reduktion der Kontraktionskraft um 50 %; for Kontraktionskraft (Art der Wirkung): qualitative, exclusively a decrease of contraction force; for Emax: Cavia porcellus, extent of positive inotropic effect in % of the maximal increase of contraction force by Isoproterenol, read-out: Ausmass der Wirkung (% von ISOmax); for EC50: concentration for half of the maximal positive inotropic effect, left atria, guinea pig, read-out: Wirksamkeit EC50. Type of assay: cell-based, Meerschweinchen. The text has this:
(§1) Die Steigerung der myocardialen Kontraktilität, d.h. die positiv inotrope Wirkung, kann z.B. anhand von Versuchsanordnungen nachgewiesen werden, die sich auf die von J.V. Levy, Isolated Atrial Preparations in Methods in Pharmacology, Bd. 1, S. 77 bis 104 (Ed. A. Schwartz; Appleton-Century-Crofts, New York; 1971),beschriebene Methodik, stützen. So steigern die Verbindungen der Formel I und Salze von solchen Verbindungen mit salzbildenden Eigenschaften in Konzentrationen ab etwa 0,1 umol/L an isolierten, elektrisch gereizten, linken Vorhöfen des Meerschweinchens (in vitro-Versuchsanordnung) die maximale Kontraktionskraft (peak developed tension). Das Ausmass (efficacy) dieser positiv inotropen Wirkung ist dabei unterschiedlich, kann jedoch bis zu 90 % der mit Isoproterenol maximal erreichbaren Wirkung betragen. Ferner steigern sie in Konzentrationen ab etwa 0,3 µ mol/L an isolierten, spontan schlagenden, rechten Vorhöfen des Meerschweinchens die Kontraktionsfrequenz. Das Ausmass (efficacy) dieser positiv chronotropen Wirkung ist dabei unterschiedlich, kann jedoch bis zu 60% der mit Isoproterenol maximal erreichbaren Wirkung betragen.
In der folgenden Tabelle werden die Konzentrationen (in µmol/L) für Verbindungen der Formel I angegeben, die notwendig sind, um die Hälfte der maximalen positiv inotropen Wirkung zu erzielen (EC50). Das Ausmass der Wirkung wird in % der maximalen, mittels Isoproterenol in dieser Versuchsanordnung bewirkten Steigerung der Kontraktionskraft (ISOmax.) angegeben; diejenige von Isoproterenol beträgt +2.1 +0.1 g (x ± SK; N=30).
Im Gegensatz dazu weist z.B. der obgenannte 2-Cyan-6-methyl-4-(3-nitrophenyl)-1,4-dihydro-pyridin-3,5-dicarbonsäure-5-isopropylester-3-methylester in der gleichen Versuchsanordnung eine Reduktion der Kontraktionskraft um 25 % bei einer Konzentration von 1 µmol/L und um 50 % bei einer solchen von 8 µmol/L auf, während Nifedipin bei einer Konzentration von 0.1 µmol/L eine 25 %ige und von 0.4 µmo 1/1 eine 50 Zige Reduktion der myocardialen Kontraktionskraft bewirkt.

Assay [2] deals with isolierten, spontan schlagenden, rechten Vorhöfen des Meerschweinchens. As to the kind of experiment: positive chronotropic effect on isolated, spontaneously beating right atria. It is filed as cell-based, Meerschweinchen. To be noted: qualitative; exclusively a decrease of contraction frequency.
Source text: as §1

The next assay relates to narkotisierten Katze. As to the kind of experiment: arterial blood pressure in the anaesthetised cat, intravenous. It is filed as in vivo. To be noted: qualitative, i.v., doses from about 0,001 mg/kg. How it is done: An der narkotisierten Katze führen die Verbindungen der Formel I und Salze von solchen Verbindungen mit salzbildenden Eigenschaften bei intravenöser Verabreichung in Dosen ab etwa 0,001 mg/kg zu einer Steigerung des arteriellen Blutdrucks.

Another assay relates to männliche Ratten. As to the kind of experiment: central nervous system stimulation (behaviour) in male rats, i.p. Type of assay: in vivo. As to conditions: 50 mg/kg i.p. as solution in Polyäthylenglycol 400; during 1 hour, especially 30 minutes after administration. How it is done: Die Verbindungen der Formel I sowie Salze von solchen Verbindungen mit salzbildenden Eigenschaften wirken ferner aktivierend, insbesondere stimulierend, auf das Zentralnervensystem. So bewirkt z.B. die i.p.-Verabreichung von 50 mg/kg 4-(2-Difluormethoxyphenyl)-2-methyl-5-oxo-1,4,5,7-tetrahydro-fuo[3,4-b]pyridin-3-carbonsäureäthylester als Lösung in Polyäthylenglycol 400 an männliche Ratten während 1 Stunde, insbesondere während 30 Minuten nach Verabreichung Schnuppern, Kau- und Putzaktivität, sporadische. Schüttelbewegungen von Kopf und Körper sowie Vorderpfoten-Klonus. Aufgrund dieser Eigenschaften erscheinen die Verbindungen der Formel I sowie Salze von solchen Verbindungen mit salzbildenden Eigenschaften für die Behandlung retardierter Depressionen verschiedenen Schweregrades, von psychischen, von fehlendem Antrieb und Initiative begleiteten Störungen sowie von hypokinetischen, geriatrischen Patienten geeignet.

For a further assay, the system named is narkotisierten Hund. As to the kind of experiment: haemodynamics and blood glucose in the anaesthetised dog, intravenous. Type of assay: in vivo. To be noted: qualitative. How it is done:
Im narkotisierten Hund (in vivo-Versuchsanordnung) bewirken die Verbindungen der Formel I und Salze von solchen Verbindungen mit salzbildenen Eigenschaften bei intravenöser Verabreichung in Dosen ab etwa 1 mg/kg ebenfalls eine Steigerung der myokardialen Kontraktilität (Zunahme der maximalen Druckanstiegsgeschwindigkeit dP/dt in der max Aorta) um etwa 40 bis etwa 60 %, sowie eine Steigerung des arteriellen Blutdrucks um etwa 10 bis etwa 30 %, ferner eine Abnahme der GlucoseKonzentration im Blut um etwa 10 bis etwa 30 %.

The source of these data is patent EP0111455A2, “Unsaturated lactones” (CIBA-GEIGY AG, priority 1982, dated 1984).

Usually EC50 stands for the concentration needed to bring the measured effect to its halfway point.

In the case of `COC(=O)C1=C(C#N)NC(C)=C(C(=O)OC(C)C)C1c1cccc([N+](=O)[O-])c1` (centres unmarked) [2-Cyan-6-methyl-4-(3-nitrophenyl)-1,4-dihydro-pyridin-3,5-dicarbonsäure-5-isopropylester-3-methylester, reference compound], in assay [1], the IC25 was found to be 1000 nM, the IC50 came to 8000 nM and the “Kontraktionskraft (Art der Wirkung)” value is given as “negativ inotrope Wirkung”. In addition, in assay [2], the “Kontraktionsfrequenz (Art der Wirkung)” value is given as “negativ chronotrope Wirkung”. Also, in the assay with narkotisierten Katze, the “arterieller Blutdruck (Art der Wirkung)” value was “Senkung des arteriellen Blutdrucks”.

Turning to `CCOC(=O)C1=C(C)NC2=C(C(=O)OC2)C1c1ccccc1OCCSC` (centres unmarked) [2-Methyl-4-[2-(2-methylthioäthoxy)-phenyl]-5-oxo-_ 1,4,5,7-tetrahydro-fnro[3,4-b]pyridin-3-carbonsäure-äthylester], in assay [1], the Emax came to 75% and the half-maximal effective concentration (EC50) is 380 nM.

For the compound `CCOC(=O)C1=C(C)NC2=C(C(=O)OC2)C1c1ccccc1OC(F)(F)C(F)Cl` (centres unmarked) [4-[2-(2-Chlor-1,1,2-trifluor-äthoxy)-phenyl]-2-methyl-5-oxo-1,4,5,7-tetrahydro-furo-[3,4-b]pyridin-3-carbonsäureäthylester], in assay [1], the Emax was determined as 75% and the EC50 is 1000 nM.

With `CC1=C(C#N)C(c2ccccc2OC(F)F)C2=C(COC2=O)N1` (centres unmarked) [-CN; 2-Difluormethoxy-phenyl, 4-(2-Difluormethoxy-phenyl)-2-methyl-5-oxo-1,4,5,7-tetrahydro-furo[3,4-b]pyridin-3-carbonitril], in assay [1], the Emax worked out at 68% and the EC50 was 63000 nM.

For the compound `COCCOC(=O)C1=C(C)NC2=C(C(=O)OC2)C1c1ccccc1OC(F)F` (centres unmarked) [-COOC2H4OCH3; 2-Difluormethoxy-phenyl, 4-(2-Difluormethoxyphenyl)-2-methyl-5-oxo-1,4,5,7-tetrahydro-furo[3,4-b]pyridin-3-carbonsäure-(2-methoxyäthyl)-ester], in assay [1], the Emax was determined as 90% and the half-maximal effective concentration (EC50) was determined as 5300 nM.

`CCOC(=O)C1=C(C)NC2=C(C(=O)OC2)C1c1cccc(OC(F)F)c1OC(F)F` (centres unmarked) [-COOC2H5; 2,3-Di-difluor-methoxyphenyl, 4-[2,3 Di-(difluormethoxy)-phenyl]-2-methyl-5-oxo-1,4,5,7-tetrahydro-furo[3,4-b]pyridin-3-carbonsäure-äthylester]: the Emax in assay [1] worked out at 14%.

`CCOC(=O)C1=C(C)NC2=C(C(=O)OC2)C1c1ccccc1OCCOC` (centres unmarked) [-COOC2H5; 2-(2-Methoxyäthoxy)-phenyl, 2 Methyl-4-[2-(2-methoxyäthoxy)-phenyl]-5-oxo-1,4,5,7-tetrahydro-furo[3,4-b]pyridin-3-carbonsäure-äthylester]: in assay [1], the Emax was determined as 80% and the EC50 turned out to be 3800 nM.

`CCOC(=O)C1=C(C)NC2=C(C(=O)OC2)C1c1ccccc1OC(F)F` (centres unmarked) [-COOC2H5; 2-Difluormethoxy-phenyl, 4-(2-Difluormethoxy-phenyl)-2-methyl-5-oxo-1,4-5,7-tetrahydro-furo[3,4-b]pyridin-3-carbonsäureäthylester]: in assay [1], the Emax was 65% and the concentration for a half-maximal effect (EC50) came out at 700 nM. Besides, in the assay on männliche Ratten, the “Wirkung auf das Zentralnervensystem (Verhalten)” value was “Schnuppern, Kau- und Putzaktivität, sporadische. Schüttelbewegungen von Kopf und Körper sowie Vorderpfoten-Klonus”.

On to `CCOC(=O)C1=C(C)NC2=C(C(=O)OC2)C1c1ccccc1SC(F)F` (centres unmarked) [-COOC2H5; 2-Difluormethyl-mercaptophenyl, 4-(2-Difluormethylmercaptophenyl)-2-methyl-5-oxo-1,4,5,7-tetrahydro-furo[3,4-b]pyridin-3-carbonsäure-äthylester], for which, in assay [1], the Emax came out at 80% and the EC50 is 1000 nM.

As to `CCOC(=O)C1=C(C)NC2=C(C(=O)OC2)C1c1cccc(OC(F)F)c1` (centres unmarked) [-COOC2H5; 3-Difluormethoxy-phenyl, 4-(3-Difluormethoxyphenyl)-2-methyl-5-oxo-1,4,5,7-tetrahydro-furo [3,4-b]pyridin-3-carbonsäure-äthylester], in assay [1], the Emax turned out to be 65% and the EC50 is 4800 nM.

Regarding `CCOC(=O)C1=C(C)NC2=C(C(=O)OC2)C1c1ccc(OC(F)F)cc1` (centres unmarked) [-COOC2H5; 4-Difluormethoxy-phenyl, 4-(4-Difluormethoxy-phenyl)-2-methyl-5-oxo-1,4,5,7-tetrahydro-furo[3,4-b]pyridin-3-carbonsäureäthylester], the Emax in assay [1] was determined as 10%.

For the compound `COC(=O)C1=C(C)NC2=C(C(=O)OC2)C1c1ccccc1OC(F)F` (centres unmarked) [-COOCH3; 2-Difluormethoxy-phenyl, 4-(2-Difluormethoxyphenyl)-2-methyl-5-oxo-l,4,5,7-tetrahydro-furo[3,4-b]pyridin-3-carbonsäure-methylester], in assay [1], the Emax amounted to 70% and the concentration giving a half-maximal response (EC50) was 3700 nM.

Consider `CC1=C(C(=O)OC(C)C)C(c2ccccc2OC(F)F)C2=C(COC2=O)N1` (centres unmarked) [-COOCH(CH3)2; 2-Difluormethoxy-phenyl, 4-(2-Difluormethoxyphenyl)-2-methyl-5-oxo-1,4,5,7-tetra-hydro-furo[3,4-b]pyridin-3-carbonsäure-isopropylester], for which, in assay [1], the Emax is 70% and the concentration for a half-maximal effect (EC50) is 1200 nM.

On to `CC(C)NCC(O)c1ccc(O)c(O)c1` (centres unmarked) [Isoproterenol, reference compound], for which the “maximale Steigerung der Kontraktionskraft (ISOmax.)” value in assay [1] (x ± SK, N=30) stood at 2.1 ± 0.1 g.

`COC(=O)C1=C(C)NC(C)=C(C(=O)OC)C1c1ccccc1[N+](=O)[O-]` [Nifedipin, 2,6-Dimethyl-4-(2-nitrophenyl)-1,4-dihydro-pyridin-3,5-dicarbonsäure-dimethylester, reference compound]: in assay [1], the IC25 was 100 nM, the IC50 came to 400 nM and the “Kontraktionskraft (Art der Wirkung)” value is given as “negativ inotrope Wirkung”. The “Kontraktionsfrequenz (Art der Wirkung)” value in assay [2] is given as “negativ chronotrope Wirkung”. Further, the “Blutdruck (Art der Wirkung)” value with narkotisierten Hund is recorded as “Senkung des Blutdrucks”. In addition, the “arterieller Blutdruck (Art der Wirkung)” value in the assay with narkotisierten Katze is “Senkung des arteriellen Blutdrucks”.
